Data: patent US20110305748A1 (priority 2010, published 2011)

System: influenza
Set-up: species or system mice
Conditions: mouse, in vivo

In the case of GLA, the “Th1 T cell responses (antigen-specific IgG2a titers and IFNγ production)” value is reported as “dramatic increase in antigen-specific IgG2a titers and IFNγ production”.
